Experimental data published in patent US11382328B2, “Rapid drug discovery methods for pathogen inactivation” (priority 2019, dated 2022).
Like-named read-outs stand apart in the source and are kept apart here.

Test system: E. coli strain W3110
Test: Synergy assays: Biolog chemical sensitivity panels with Group IB metal, coefficient of drug interaction (CDI) from relative growth
Type: cell-based
Settings: for CDI (coefficient of drug interaction), gold + biocide: Gold (μM); for CDI (coefficient of drug interaction), copper mixed with biocide: Copper (mM) section
[1] = Copper (mM), 1st of 3 copper concentrations (head line not shown), biocide concentration 1 of 4, E. coli
[2] = Copper (mM), 1st of 3 copper concentrations (head line not shown), biocide concentration 2 of 4, E. coli
[3] = Copper (mM), 1st of 3 copper concentrations (head line not shown), biocide concentration 3 of 4, E. coli
[4] = Copper (mM), 1st of 3 copper concentrations (head line not shown), biocide concentration 4 of 4, E. coli
[5] = Copper (mM), 2nd of 3 copper concentrations (head line not shown), biocide concentration 1 of 4, E. coli
[6] = Copper (mM), 2nd of 3 copper concentrations (head line not shown), biocide concentration 2 of 4, E. coli
[7] = Copper (mM), 2nd of 3 copper concentrations (head line not shown), biocide concentration 3 of 4, E. coli
[8] = Copper (mM), 2nd of 3 copper concentrations (head line not shown), biocide concentration 4 of 4, E. coli
[9] = Copper (mM), 3rd of 3 copper concentrations (head line not shown), biocide concentration 1 of 4, E. coli
[10] = Copper (mM), 3rd of 3 copper concentrations (head line not shown), biocide concentration 2 of 4, E. coli
[11] = Copper (mM), 3rd of 3 copper concentrations (head line not shown), biocide concentration 3 of 4, E. coli
[12] = Copper (mM), 3rd of 3 copper concentrations (head line not shown), biocide concentration 4 of 4, E. coli
[13] = Gold section of Table 5, first of three gold concentrations (μM, value not given), biocide concentration 4 of 4
[14] = Gold section of Table 5, second of three gold concentrations (μM, value not given), biocide concentration 3 of 4
[15] = Gold section of Table 5, second of three gold concentrations (μM, value not given), biocide concentration 4 of 4
[16] = Gold section of Table 5, third of three gold concentrations (μM, value not given), biocide concentration 1 of 4
[17] = Gold section of Table 5, third of three gold concentrations (μM, value not given), biocide concentration 2 of 4
[18] = Gold section of Table 5, third of three gold concentrations (μM, value not given), biocide concentration 4 of 4
[19] = Silver 0.5 μM, biocide concentration 1 of 4
[20] = Silver 0.5 μM, biocide concentration 2 of 4
[21] = Silver 0.5 μM, biocide concentration 3 of 4
[22] = Silver 0.5 μM, biocide concentration 4 of 4
[23] = Silver 1.0 μM, biocide concentration 1 of 4
[24] = Silver 1.0 μM, biocide concentration 2 of 4
[25] = Silver 1.0 μM, biocide concentration 3 of 4
[26] = Silver 1.0 μM, biocide concentration 4 of 4
[27] = Silver 5.0 μM, biocide concentration 1 of 4
[28] = Silver 5.0 μM, biocide concentration 2 of 4
[29] = Silver 5.0 μM, biocide concentration 3 of 4
[30] = Silver 5.0 μM, biocide concentration 4 of 4
[31] = first of 3 gold concentrations, biocide concentration 4 of 4
[32] = second of 3 gold concentrations, biocide concentration 4 of 4
[33] = third of 3 gold concentrations, biocide concentration 4 of 4
[34] = Gold section of Table 5, first of three gold concentrations (μM, value not given), biocide concentration 2 of 4
[35] = Gold section of Table 5, second of three gold concentrations (μM, value not given), biocide concentration 2 of 4

Row | Compound | CDI (coefficient of drug interaction) [1] | CDI (coefficient of drug interaction) [3] | CDI (coefficient of drug interaction) [4] | CDI (coefficient of drug interaction) [5] | CDI (coefficient of drug interaction) [6] | CDI (coefficient of drug interaction) [7] | CDI (coefficient of drug interaction) [8] | CDI (coefficient of drug interaction) [9] | CDI (coefficient of drug interaction) [10] | CDI (coefficient of drug interaction) [11] | CDI (coefficient of drug interaction) [12] | CDI (coefficient of drug interaction) [13] | CDI (coefficient of drug interaction) [15] | CDI (coefficient of drug interaction) [17] | CDI [21] | CDI [22] | CDI [25] | CDI [26] | CDI [29] | CDI [30] | also measured
1 | capreomycin | 1.10 | 0.83 | 0.87 | 0.87 | 0.86 | 0.90 | Tox | 0.86 | 0.57 | 0.49 | 0.60 | 1.03 | 1.06 | 0.98 | 0.96 | Tox | 0.35 | Tox | 0.02 | Tox | CDI (coefficient of drug interaction) [2]: 0.91; CDI (coefficient of drug interaction) (Gold section of Table 5, second of three gold concentrations (μM, value not given), biocide concentration 1 of 4): 1.03; CDI (coefficient of drug interaction) [14]: 0.97; CDI (coefficient of drug interaction) [16]: 1.00; CDI (coefficient of drug interaction) [18]: 1.14; CDI [19]: 0.95; CDI [20]: 0.92; CDI [23]: 0.69; CDI [24]: 0.37; CDI [27]: 0.41; CDI [28]: 0.11
2 | O=C1C=C(O)C(=O)c2ccccc21 [lawsone] |  |  |  |  |  |  |  |  |  |  |  | Tox | Tox |  |  | Tox |  | Tox |  | Tox | CDI (coefficient of drug interaction) [18]: Tox
3 | Cc1onc(-c2ccccc2)c1C(=O)N[C@@H]1C(=O)N2[C@@H]1SC(C)(C)[C@@H]2C(=O)O [oxacillin] |  | Tox | Tox |  |  | Tox | Tox |  |  | Tox | Tox |  |  |  | Tox | Tox | Tox | Tox | Tox | Tox | CDI (coefficient of drug interaction), gold + biocide [31]: Tox; CDI (coefficient of drug interaction), gold + biocide [32]: Tox; CDI (coefficient of drug interaction), gold + biocide [33]: Tox
4 | CCn1cc(C(=O)O)c(=O)c2cc(F)c(N3CCNCC3)cc21 [norfloxacin] |  |  |  |  |  |  |  |  |  |  |  |  |  |  |  |  |  |  |  |  | CDI (coefficient of drug interaction) (Gold 50 μM, biocide concentration 4 of 4, E. coli): Tox
5 | N.N.N.N.N.N.N.N.N.N.N.N.N.N.[Cl-].[Cl-].[Cl-].[Cl-].[Cl-].[Cl-].[O-2].[O-2].[Ru+3].[Ru+3].[Ru+4] [ruthenium red] | 0.73 | 0.51 | 0.50 | 0.52 | 0.47 | 0.37 | 0.30 | 0.45 | 0.38 | 0.33 | 0.29 |  |  |  | 0.75 | 0.69 | 0.83 | 0.34 | 0.38 | 0.19 | CDI (coefficient of drug interaction) [2]: 0.60; CDI (coefficient of drug interaction), gold + biocide (first of 3 gold concentrations, biocide concentration 1 of 4): 1.04; CDI (coefficient of drug interaction), gold + biocide (first of 3 gold concentrations, biocide concentration 2 of 4): 0.94; CDI (coefficient of drug interaction), gold + biocide (first of 3 gold concentrations, biocide concentration 3 of 4): 1.05; CDI (coefficient of drug interaction), gold + biocide [31]: 1.06; CDI (coefficient of drug interaction), gold + biocide (second of 3 gold concentrations, biocide concentration 1 of 4): 1.03; CDI (coefficient of drug interaction), gold + biocide (second of 3 gold concentrations, biocide concentration 2 of 4): 1.02; CDI (coefficient of drug interaction), gold + biocide (second of 3 gold concentrations, biocide concentration 3 of 4): 1.14; CDI (coefficient of drug interaction), gold + biocide [32]: 1.07; CDI (coefficient of drug interaction), gold + biocide (third of 3 gold concentrations, biocide concentration 1 of 4): 1.08; CDI (coefficient of drug interaction), gold + biocide (third of 3 gold concentrations, biocide concentration 2 of 4): 1.05; CDI (coefficient of drug interaction), gold + biocide (third of 3 gold concentrations, biocide concentration 3 of 4): 1.13; CDI (coefficient of drug interaction), gold + biocide [33]: 1.09; CDI [19]: 0.78; CDI [20]: 0.79; CDI [23]: 0.87; CDI [24]: 0.89; CDI [27]: 0.68; CDI [28]: 0.34
6 | spiramycin | 1.00 | 0.94 | Tox | 0.89 | Tox | Tox | Tox | 0.92 | 0.91 | 3.40 | Tox | Tox | Tox | 0.33 | Tox | Tox | Tox | Tox | Tox | Tox | CDI (coefficient of drug interaction) (Gold section of Table 5, first of three gold concentrations (μM, value not given), biocide concentration 1 of 4): 1.03; CDI (coefficient of drug interaction) [34]: 1.00; CDI (coefficient of drug interaction) (Gold section of Table 5, first of three gold concentrations (μM, value not given), biocide concentration 3 of 4): Tox; CDI (coefficient of drug interaction) [35]: 0.67; CDI (coefficient of drug interaction) [14]: Tox; CDI (coefficient of drug interaction) [16]: 0.84; CDI (coefficient of drug interaction) (Gold section of Table 5, third of three gold concentrations (μM, value not given), biocide concentration 3 of 4): Tox; CDI (coefficient of drug interaction) [18]: Tox; CDI [19]: 0.83; CDI [20]: Tox; CDI [23]: 0.96; CDI [24]: Tox; CDI [27]: 0.83; CDI [28]: Tox
7 | Nc1ccc(S(=O)(=O)Nc2ncccn2)cc1 [sulfadiazine] |  |  |  |  |  |  |  |  |  |  |  |  |  |  |  |  |  |  |  |  | cell toxicity / growth curves with and without silver: enhanced cell toxicity
8 | NC(=O)NN=Cc1ccc([N+](=O)[O-])o1 [5-Nitro-2-furaldehyde semicarbazone] |  |  |  |  |  |  |  |  |  |  |  |  |  |  |  |  |  |  |  |  | CDI (coefficient of drug interaction) ([…], biocide concentration 3 of 4, E. coli): Tox; CDI (coefficient of drug interaction) ([…], biocide concentration 4 of 4, E. coli): Tox
9 | CN(C)S(=O)(=O)N(SC(F)(Cl)Cl)c1ccccc1 [dichlofluanid] |  |  |  |  |  |  |  |  |  |  |  |  |  | Tox |  |  |  |  |  |  | CDI (coefficient of drug interaction), copper mixed with biocide (1st of 3 copper concentrations (value not shown), 4th of four biocide concentrations): Tox; CDI (coefficient of drug interaction), copper mixed with biocide (2nd of 3 copper concentrations (value not shown), 1st of four biocide concentrations): Tox; CDI (coefficient of drug interaction), copper mixed with biocide (2nd of 3 copper concentrations (value not shown), 4th of four biocide concentrations): Tox; CDI (coefficient of drug interaction), copper mixed with biocide (3rd of 3 copper concentrations (value not shown), 4th of four biocide concentrations): Tox; CDI (coefficient of drug interaction) [34]: Tox; CDI (coefficient of drug interaction) [35]: Tox; CDI (coefficient of drug interaction), silver + biocide (Silver 0.5 μM, 2nd of four biocide concentrations, E. coli): Tox; CDI (coefficient of drug interaction), silver + biocide (Silver 1.0 μM, 1st of four biocide concentrations, E. coli): Tox; CDI (coefficient of drug interaction), silver + biocide (Silver 1.0 μM, 2nd of four biocide concentrations, E. coli): Tox; CDI (coefficient of drug interaction), silver + biocide (Silver 5.0 μM, 1st of four biocide concentrations, E. coli): Tox; CDI (coefficient of drug interaction), silver + biocide (Silver 5.0 μM, 2nd of four biocide concentrations, E. coli): Tox
10 | hydroxylamine |  |  |  |  |  |  |  |  |  |  |  |  |  |  |  |  |  |  |  |  | CDI (coefficient of drug interaction): 0.99
